Test results: ChEMBL document CHEMBL4765450, “The components and activities analysis of a novel anticoagulant candidate dHG-5” (Eur J Med Chem, 2020)
The source made the active and inactive calls. The rule behind the calls is not given here.

Tests used:
[1] = MRT (0 to 8 hrs) in Kunming mouse at 5.11 mg/kg, sc; format: ADME, organism-based; conditions: in vivo
[2] = biological target: Coagulation factor XI (Homo sapiens) (UniProt P03951); assay: Inhibition of factor 11a (unknown origin) at IC50 using S-2366 as substrate preincubated for 1 min followed by chromogenic substrate addition and measured for 2 mins in presence of AT-III; conditions: time 3.0 min
[3] = Tmax in Kunming mouse at 1.7 mg/kg, sc; format: ADME, organism-based; conditions: in vivo
[4] = test system: Rattus norvegicus; assay: Antithrombotic activity in thromboplastin and stasis-induced Sprague-Dawley rat deep venous thrombosis model assessed as reduction in venous thrombosis at 2.7 mg/kg, sc administered 1 hr prior to thromboplastin addition for 20 secs followed by establishment of stasis for 20 mins; format: functional; parameters: scale not given: the % may be the effect or the level left; conditions: time 80.33 min, 1.339 h
[5] = biological target: Coagulation factor X (Homo sapiens) (UniProt P00742); assay: Inhibition of factor 10a (unknown origin) at IC50 preincubated for 1 min followed by chromogenic substrate addition and measured for 2 mins in presence of AT-III; conditions: time 3.0 min
[6] = test system: Mus musculus; assay: Anticoagulation activity in Kunming mouse assessed as APTT-prolonging effect by measuring time for maximum effect at 15.3 mg/kg, sc measured after 0.5 to 8 hrs by APTT reagent based assay; format: functional; conditions: time 0.5-8 hrs
[7] = test system: Plasma; assay: Anticoagulation activity in HCII-deficient human plasma preincubated for 2 mins followed by APTT reagent and measured after 3 mins by coagulometric method; format: functional, cell-free; conditions: time 5.0 min
[8] = Tmax in Kunming mouse at 15.3 mg/kg, sc; format: ADME, organism-based; conditions: in vivo
[9] = Toxicity in Kunming mouse tail bleeding model assessed as blood loss at 73.01 mg/kg, sc measured after 1 hr by UV-vis spectrophotometry; format: organism-based; conditions: in vivo
[10] = biological target: Coagulation factor XI (Homo sapiens) (UniProt P03951); assay: Inhibition of factor 11a (unknown origin) at IC50 using S-2366 as substrate preincubated for 1 min followed by chromogenic substrate addition and measured for 2 mins; conditions: time 3.0 min
[11] = MRT (0 to infinity) in Kunming mouse at 1.7 mg/kg, sc; format: ADME, organism-based; conditions: in vivo
[12] = biological target: Coagulation factor X (Homo sapiens) (UniProt P00742); assay: Inhibition of factor 10a (unknown origin) at IC90 preincubated for 1 min followed by chromogenic substrate addition and measured for 2 mins in presence of AT-III relative to control; conditions: time 3.0 min

Sequence of Coagulation factor XI (Homo sapiens) (P03951 19-387 limits assumed): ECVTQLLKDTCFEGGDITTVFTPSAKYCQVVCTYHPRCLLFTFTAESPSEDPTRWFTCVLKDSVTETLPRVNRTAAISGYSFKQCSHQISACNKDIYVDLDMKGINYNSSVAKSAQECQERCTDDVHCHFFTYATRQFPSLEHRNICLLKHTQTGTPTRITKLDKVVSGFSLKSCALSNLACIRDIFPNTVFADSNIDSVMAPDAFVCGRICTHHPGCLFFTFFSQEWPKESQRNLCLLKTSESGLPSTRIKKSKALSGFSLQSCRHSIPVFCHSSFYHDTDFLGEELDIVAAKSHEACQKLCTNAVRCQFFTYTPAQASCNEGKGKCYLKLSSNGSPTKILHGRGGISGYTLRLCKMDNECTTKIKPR
Sequence of Coagulation factor XI (Homo sapiens) (P03951 388-625 limits assumed): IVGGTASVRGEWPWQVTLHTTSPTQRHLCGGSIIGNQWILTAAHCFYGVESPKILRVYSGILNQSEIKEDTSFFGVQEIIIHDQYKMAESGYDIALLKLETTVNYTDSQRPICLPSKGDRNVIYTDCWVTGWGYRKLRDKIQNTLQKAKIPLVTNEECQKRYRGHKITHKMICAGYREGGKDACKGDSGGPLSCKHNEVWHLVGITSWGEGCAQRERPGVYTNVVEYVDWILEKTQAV
Sequence of Coagulation factor X (Homo sapiens) (P00742 41-179 limits assumed): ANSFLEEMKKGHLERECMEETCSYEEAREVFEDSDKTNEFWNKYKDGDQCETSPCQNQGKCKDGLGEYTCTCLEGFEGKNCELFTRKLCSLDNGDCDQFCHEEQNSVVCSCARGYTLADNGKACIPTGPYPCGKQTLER
Sequence of Coagulation factor X (Homo sapiens) (P00742 235-488 limits assumed): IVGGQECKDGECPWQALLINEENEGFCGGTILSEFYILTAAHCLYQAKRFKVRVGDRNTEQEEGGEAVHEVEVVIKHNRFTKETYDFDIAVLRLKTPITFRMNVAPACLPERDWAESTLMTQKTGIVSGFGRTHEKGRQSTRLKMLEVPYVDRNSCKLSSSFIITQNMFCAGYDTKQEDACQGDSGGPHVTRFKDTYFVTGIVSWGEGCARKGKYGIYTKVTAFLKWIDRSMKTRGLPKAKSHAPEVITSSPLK

With `CC(=O)N[C@H]1[C@H](O[C@H]2[C@H](O[C@@H]3O[C@@H](C)[C@@H](OS(=O)(=O)[O-])[C@@H](O)[C@@H]3OS(=O)(=O)O)[C@@H](O)[C@H](O[C@H]3[C@@H](NC(C)=O)[C@H](O[C@H]4[C@H](O[C@@H]5O[C@@H](C)[C@@H](OS(=O)(=O)[O-])[C@@H](O)[C@@H]5OS(=O)(=O)O)[C@@H](O)[C@H](O[C@H]5[C@@H](NC(C)=O)[C@H](O[C@H]6[C@H](O[C@@H]7O[C@@H](C)[C@@H](OS(=O)(=O)[O-])[C@@H](O)[C@@H]7OS(=O)(=O)O)[C@@H](O)[C@H](O[C@H]7[C@@H](NC(C)=O)[C@H](O[C@H]8[C@H](O[C@@H]9O[C@@H](C)[C@@H](OS(=O)(=O)[O-])[C@@H](O)[C@@H]9OS(=O)(=O)O)[C@@H](O)[C@H](O[C@H]9[C@@H](NC(C)=O)[C@H](O[C@@H]([C@H](O[C@@H]%10O[C@@H](C)[C@@H](OS(=O)(=O)[O-])[C@@H](O)[C@@H]%10OS(=O)(=O)O)[C@@H](O)CO)[C@H](O)C(=O)[O-])O[C@H](COS(=O)(=O)[O-])[C@@H]9OS(=O)(=O)[O-])O[C@@H]8C(=O)[O-])O[C@H](COS(=O)(=O)[O-])[C@@H]7OS(=O)(=O)[O-])O[C@@H]6C(=O)[O-])O[C@H](COS(=O)(=O)[O-])[C@@H]5OS(=O)(=O)[O-])O[C@@H]4C(=O)[O-])O[C@H](COS(=O)(=O)[O-])[C@@H]3OS(=O)(=O)[O-])O[C@@H]2C(=O)[O-])O[C@H](COS(=O)(=O)[O-])[C@H](OS(=O)(=O)[O-])[C@@H]1O[C@@H]1OC(C(=O)[O-])=C[C@H](O[C@@H]2O[C@@H](C)[C@@H](OS(=O)(=O)[O-])[C@@H](O)[C@@H]2OS(=O)(=O)O)[C@H]1O.[Na+].[Na+].[Na+].[Na+].[Na+].[Na+].[Na+].[Na+].[Na+].[Na+].[Na+].[Na+].[Na+].[Na+].[Na+].[Na+].[Na+].[Na+].[Na+].[Na+].[Na+].[Na+]` the MRT last [1] was 1.52 h, the inhibition [2] was “inactive” and the Tmax [3] was 1.17 h. The Activity [4] was 60.7%, the inhibition [5] was “inactive” and the Emax [6] was 20.2 s. For the same compound, the Activity [7] was “Active”, the Tmax [8] was 0.75 h and the Activity [9] was 139 µL. For the same compound, the inhibition [10] was “inactive”, the MRT inf [11] was 2.21 h and the inhibition [12] was “inactive”.
